Measured values from PubChem BioAssay (NCI).
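Compound exposure: 48 hours, 5 concentrations, 96-well plates. The concentration for 50% growth inhibition is given as GI50. The concentration for full growth arrest is given as TGI.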

Assays:
Assay in all cases: DTP human tumour cell line panel, 48 h
TK-10 renal = tested on: TK-10 renal
A549 NSCLC = tested on: A549 NSCLC
HT29 colon = tested on: HT29 colon
COLO 205 colon = tested on: COLO 205 colon
MCF7 breast = tested on: MCF7 breast
NCI-H226 lung = tested on: NCI-H226 lung
BT-549 breast = tested on: BT-549 breast
NCI/ADR-RES ovarian = tested on: NCI/ADR-RES ovarian
T-47D breast = tested on: T-47D breast
PC-3 prostate = tested on: PC-3 prostate
SK-MEL-5 melanoma = tested on: SK-MEL-5 melanoma
SF-295 CNS = tested on: SF-295 CNS
ACHN renal = tested on: ACHN renal
M14 melanoma = tested on: M14 melanoma
OVCAR-8 ovarian = tested on: OVCAR-8 ovarian
A498 renal = tested on: A498 renal
786-0 renal = tested on: 786-0 renal
CAKI-1 renal = tested on: CAKI-1 renal
K-562 leukemia = tested on: K-562 leukemia
UACC-62 melanoma = tested on: UACC-62 melanoma
DU-145 prostate = tested on: DU-145 prostate
HL-60(TB) leukemia = tested on: HL-60(TB) leukemia
OVCAR-3 ovarian = tested on: OVCAR-3 ovarian
NCI-H522 lung = tested on: NCI-H522 lung
SNB-75 CNS = tested on: SNB-75 CNS
MOLT-4 leukemia = tested on: MOLT-4 leukemia
NCI-H460 lung = tested on: NCI-H460 lung
KM12 colon = tested on: KM12 colon
OVCAR-5 ovarian = tested on: OVCAR-5 ovarian
UACC-257 melanoma = tested on: UACC-257 melanoma
HCT-116 colon = tested on: HCT-116 colon
IGROV1 ovarian = tested on: IGROV1 ovarian
HCT-15 colon = tested on: HCT-15 colon
UO-31 renal = tested on: UO-31 renal
SK-MEL-28 melanoma = tested on: SK-MEL-28 melanoma
RXF 393 renal = tested on: RXF 393 renal
SK-OV-3 ovarian = tested on: SK-OV-3 ovarian
U251 CNS = tested on: U251 CNS
HOP-92 NSCLC = tested on: HOP-92 NSCLC
HCC-2998 colon = tested on: HCC-2998 colon
NCI-H23 lung = tested on: NCI-H23 lung
HS 578T breast = tested on: HS 578T breast
SNB-19 CNS = tested on: SNB-19 CNS
SF-539 CNS = tested on: SF-539 CNS
CCRF-CEM leukemia = tested on: CCRF-CEM leukemia
MDA-MB-231 breast = tested on: MDA-MB-231 breast
EKVX NSCLC = tested on: EKVX NSCLC
SF-268 CNS = tested on: SF-268 CNS
SK-MEL-2 melanoma = tested on: SK-MEL-2 melanoma
OVCAR-4 ovarian = tested on: OVCAR-4 ovarian
SN12C renal = tested on: SN12C renal
HOP-62 NSCLC = tested on: HOP-62 NSCLC
SR leukemia = tested on: SR leukemia
LOX IMVI melanoma = tested on: LOX IMVI melanoma
SW-620 colon = tested on: SW-620 colon
MALME-3M melanoma = tested on: MALME-3M melanoma
RPMI-8226 leukemia = tested on: RPMI-8226 leukemia

## CCN1C(=O)N(CC)C2C1NN=c1s/c(=C\c3ccc([N+](=O)[O-])cc3)c(=O)n12 (stereo not drawn)
TK-10 renal
  GI50: > 35400 nM
  TGI: > 100000 nM
A549 NSCLC
  GI50: 681 nM
  TGI: > 100000 nM
HT29 colon
  GI50: 375 nM
  TGI: > 100000 nM
COLO 205 colon
  GI50: 469 nM
  TGI: 11800 nM
MCF7 breast
  GI50: 315 nM
  TGI: > 100000 nM
NCI-H226 lung
  GI50: 2160 nM
  TGI: > 71000 nM
BT-549 breast
  GI50: 1550 nM
  TGI: 16500 nM
NCI/ADR-RES ovarian
  GI50: 396 nM
  TGI: > 45200 nM
T-47D breast
  GI50: 575 nM
  TGI: > 100000 nM
PC-3 prostate
  GI50: 387 nM
  TGI: > 75900 nM
SK-MEL-5 melanoma
  GI50: 343 nM
  TGI: 12100 nM
SF-295 CNS
  GI50: 371 nM
  TGI: > 52200 nM
ACHN renal
  GI50: 587 nM
  TGI: > 100000 nM
M14 melanoma
  GI50: 401 nM
  TGI: > 43000 nM
OVCAR-8 ovarian
  GI50: 885 nM
  TGI: > 91100 nM
A498 renal
  GI50: 172 nM
  TGI: 704 nM
786-0 renal
  GI50: 621 nM
  TGI: > 100000 nM
CAKI-1 renal
  GI50: 395 nM
  TGI: > 46400 nM
K-562 leukemia
  GI50: 350 nM
  TGI: > 100000 nM
UACC-62 melanoma
  GI50: 500 nM
  TGI: > 100000 nM
DU-145 prostate
  GI50: 424 nM
  TGI: > 100000 nM
HL-60(TB) leukemia
  GI50: 310 nM
  TGI: 1120 nM
OVCAR-3 ovarian
  GI50: 283 nM
  TGI: 842 nM
NCI-H522 lung
  GI50: 323 nM
  TGI: 6940 nM
SNB-75 CNS
  GI50: 181 nM
  TGI: 783 nM
MOLT-4 leukemia
  GI50: 577 nM
  TGI: > 100000 nM
NCI-H460 lung
  GI50: 369 nM
  TGI: > 100000 nM
KM12 colon
  GI50: 342 nM
  TGI: > 100000 nM
OVCAR-5 ovarian
  GI50: 1220 nM
  TGI: > 91100 nM
UACC-257 melanoma
  GI50: 1170 nM
  TGI: 70000 nM
HCT-116 colon
  GI50: 427 nM
  TGI: > 100000 nM
IGROV1 ovarian
  GI50: 977 nM
  TGI: > 32900 nM
HCT-15 colon
  GI50: 394 nM
  TGI: > 100000 nM
UO-31 renal
  GI50: 903 nM
  TGI: > 100000 nM
SK-MEL-28 melanoma
  GI50: 1930 nM
  TGI: > 100000 nM
RXF 393 renal
  GI50: 451 nM
SK-OV-3 ovarian
  GI50: 698 nM
  TGI: 49500 nM
U251 CNS
  GI50: 506 nM
  TGI: > 100000 nM
HOP-92 NSCLC
  GI50: 2190 nM
  TGI: > 100000 nM
HCC-2998 colon
  GI50: 1610 nM
  TGI: > 100000 nM
NCI-H23 lung
  GI50: 1110 nM
  TGI: > 100000 nM
HS 578T breast
  GI50: 328 nM
  TGI: > 72500 nM
SNB-19 CNS
  GI50: 683 nM
  TGI: > 84300 nM
SF-539 CNS
  GI50: 338 nM
  TGI: 2830 nM
CCRF-CEM leukemia
  GI50: 411 nM
  TGI: > 46700 nM
MDA-MB-231 breast
  GI50: 1420 nM
  TGI: > 44200 nM
EKVX NSCLC
  GI50: 893 nM
  TGI: > 100000 nM
SF-268 CNS
  GI50: 895 nM
  TGI: > 67700 nM
SK-MEL-2 melanoma
  GI50: 1160 nM
  TGI: > 100000 nM
OVCAR-4 ovarian
  GI50: 744 nM
  TGI: 10500 nM
SN12C renal
  GI50: 677 nM
  TGI: > 64400 nM
HOP-62 NSCLC
  GI50: 731 nM
  TGI: > 59800 nM
SR leukemia
  GI50: 385 nM
  TGI: > 66400 nM
LOX IMVI melanoma
  GI50: 507 nM
  TGI: > 100000 nM
SW-620 colon
  GI50: 379 nM
  TGI: > 100000 nM
MALME-3M melanoma
  GI50: 587 nM
  TGI: > 100000 nM
RPMI-8226 leukemia
  GI50: 449 nM
  TGI: > 38900 nM
